From PubChem BioAssay (NCI) come the findings set out here.

“And” between values parts separate entries of the source, which are not always exact repeats. Equal values may be shown once.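 Where inhibition never reached the appropriate level, the endpoint shown equals the highest concentration tested. Otherwise, values were interpolated linearly from a five-concentration, 48-hour dose response in 96-well plates. GI50 = concentration required for 50% inhibition of growth. TGI is the concentration that stops growth completely.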 Some results are limits rather than exact numbers.

Among the test systems are A498 renal; CAKI-1 renal; IGROV1 ovarian; MCF7 breast; OVCAR-3 ovarian; OVCAR-5 ovarian; PC-3 prostate; SF-268 CNS; SK-MEL-28 melanoma; SW-620 colon.
Common to all, as to assay: NCI anticancer screen, dose series, 48 h

For `Clc1cccc(N2CCN(CCN3CCc4c([nH]c5ccccc45)C3c3cccnc3)CC2)c1` (stereo not drawn), the TGI in the test with A498 renal was > 100 µM; in the test with CAKI-1 renal, > 100 µM; with IGROV1 ovarian, > 100 µM; with MCF7 breast, > 100 µM; in the test on OVCAR-3 ovarian it was > 100 µM; with OVCAR-5 ovarian it was > 92.1 µM. For the same compound, the TGI with PC-3 prostate, with SF-268 CNS, in the test with SK-MEL-28 melanoma and in the test with SW-620 colon was > 100 µM each time.

As to `Cc1cc(Oc2cnc(=O)[nH]c2)cs1`, the TGI in the test with A498 renal, in the test on CAKI-1 renal, in the test with IGROV1 ovarian, with MCF7 breast, in the test on OVCAR-3 ovarian and with OVCAR-5 ovarian was > 100 µM in each case. Also, the TGI in the test with PC-3 prostate, with SF-268 CNS, in the test with SK-MEL-28 melanoma and with SW-620 colon was > 100 µM in each case.

In the case of `CN1CCC(C(=O)Nc2n[nH]c3nc(-c4ccc(O)cc4)c(Br)cc23)CC1`, the GI50 in the test on CAKI-1 renal was 8.62 µM and 6.77 µM; in the test with IGROV1 ovarian it was 5.13 µM and 6.36 µM; in the test on MCF7 breast, 0.557 µM and 0.724 µM; in the test with OVCAR-3 ovarian, 0.815 µM and 0.504 µM; in the test with OVCAR-5 ovarian, 7.83 µM and 10.4 µM; with PC-3 prostate, 1.08 µM and 1.64 µM. Besides, the GI50 with SF-268 CNS is 1.14 µM and 0.863 µM; with SK-MEL-28 melanoma, 1.21 µM and 2.46 µM; in the test with SW-620 colon, 0.975 µM and 0.254 µM. For the same compound, the TGI in the test on CAKI-1 renal is > 25 µM; in the test on IGROV1 ovarian it was > 25 µM; in the test on MCF7 breast it was > 22 µM; in the test on OVCAR-3 ovarian, > 11.6 µM and 1.44 µM; in the test on OVCAR-5 ovarian, > 25 µM; in the test on PC-3 prostate it was > 22.2 µM. The TGI with SF-268 CNS was 9.27 µM and 4.68 µM; in the test on SK-MEL-28 melanoma, 6.15 µM and 7.56 µM; in the test with SW-620 colon it was > 25 µM.

In the case of `OC(C1CO1)C(O)C1CO1` (stereo not drawn), the GI50 with A498 renal was 116 µM; in the test on CAKI-1 renal, 15 µM and 5.46 µM; with IGROV1 ovarian, 129 µM; in the test with MCF7 breast, 3.89 µM; in the test with OVCAR-3 ovarian, 101 µM; in the test on OVCAR-5 ovarian it was 93.9 µM. Moreover, the GI50 is 76.1 µM in the test with PC-3 prostate; 27.4 µM and 27.5 µM with SF-268 CNS; 52.4 µM and 93 µM in the test with SW-620 colon. Also, the TGI in the test with A498 renal is 134 µM and 263 µM; in the test with CAKI-1 renal it was 91.5 µM and 158 µM; with IGROV1 ovarian it was 149 µM and 327 µM; in the test with MCF7 breast, 140 µM and 78.2 µM; in the test with OVCAR-3 ovarian, 98.7 µM and 286 µM; with OVCAR-5 ovarian, 137 µM and 237 µM. Moreover, the TGI with PC-3 prostate is 150 µM and 220 µM; in the test with SF-268 CNS it was 114 µM and 513 µM; with SK-MEL-28 melanoma it was 144 µM and 239 µM; in the test on SW-620 colon, 150 µM and 458 µM.

Regarding `CC1(C)CCC[C@]2(C)c3cc(O)ccc3CC[C@@H]12`, the GI50 with A498 renal was 16.2 µM; in the test on CAKI-1 renal it was 19.5 µM; in the test with IGROV1 ovarian, 20.4 µM; with MCF7 breast, 13.3 µM; with OVCAR-3 ovarian, 17 µM; in the test with OVCAR-5 ovarian, 14 µM. For the same compound, the GI50 in the test with PC-3 prostate is 15.8 µM; in the test with SF-268 CNS, 16.4 µM; in the test on SK-MEL-28 melanoma, 19.6 µM; in the test with SW-620 colon it was 13.8 µM. Moreover, the TGI in the test on A498 renal worked out at 29.7 µM; with CAKI-1 renal, 35.9 µM; in the test on IGROV1 ovarian it was 38.8 µM; with MCF7 breast, 37.1 µM; with OVCAR-3 ovarian it was 34.3 µM; in the test with OVCAR-5 ovarian, 27.9 µM. In addition, the TGI is 30.2 µM in the test on PC-3 prostate, 33.4 µM in the test with SF-268 CNS, 37 µM with SK-MEL-28 melanoma and 29 µM with SW-620 colon.

For `O=C1c2cc(-c3ccccc3)ccc2-c2c1c1ccc([N+](=O)[O-])cc1c(=O)n2CCCBr`, the GI50 was 32.5 µM in the test with A498 renal; > 50 µM with CAKI-1 renal; > 50 µM in the test on IGROV1 ovarian; > 46.4 µM in the test with MCF7 breast; > 50 µM in the test with OVCAR-3 ovarian; > 50 µM with OVCAR-5 ovarian. In addition, the GI50 in the test on PC-3 prostate is > 50 µM; in the test with SF-268 CNS it was > 35.4 µM; with SK-MEL-28 melanoma it was > 50 µM; with SW-620 colon it was > 50 µM. Also, the TGI in the test on A498 renal, with CAKI-1 renal, with IGROV1 ovarian, in the test on MCF7 breast, in the test on OVCAR-3 ovarian and with OVCAR-5 ovarian was > 50 µM each time. In addition, the TGI in the test with PC-3 prostate, in the test on SF-268 CNS, in the test with SK-MEL-28 melanoma and in the test with SW-620 colon was > 50 µM each time.

On to `COc1cc2c(cc1OC)C(CC1(O)CCCCC1)N(S(=O)(=O)c1ccc(C)cc1)CC2` (stereo not drawn), for which the GI50 in the test on A498 renal, in the test with CAKI-1 renal, in the test with IGROV1 ovarian, in the test with MCF7 breast, with OVCAR-3 ovarian and with OVCAR-5 ovarian was > 10 µM in each case. Besides, the GI50 with PC-3 prostate, in the test with SF-268 CNS, in the test on SK-MEL-28 melanoma and in the test on SW-620 colon was > 10 µM in each case. Further, the TGI with A498 renal, in the test with CAKI-1 renal, with IGROV1 ovarian, in the test on MCF7 breast, in the test with OVCAR-3 ovarian and with OVCAR-5 ovarian was > 10 µM each time. In addition, the TGI with PC-3 prostate, with SF-268 CNS, in the test with SK-MEL-28 melanoma and in the test with SW-620 colon was > 10 µM throughout.

For the compound `COc1ccc(SC2c3ccc(C)cc3Oc3nc(N)c(C#N)c(N)c32)cc1` (stereo not drawn), the GI50 in the test with A498 renal was 1.91 µM; in the test with MCF7 breast, 1.95 µM; with OVCAR-3 ovarian it was 1.75 µM; in the test with OVCAR-5 ovarian, 1.74 µM; in the test with PC-3 prostate it was 1.6 µM; with SF-268 CNS, 1.62 µM. Besides, the values for the GI50 with SK-MEL-28 melanoma and with SW-620 colon were 1.75 µM and 1.95 µM, respectively. In addition, the TGI in the test with A498 renal turned out to be 3.44 µM; in the test with MCF7 breast, 4.72 µM; in the test with OVCAR-3 ovarian, 3.13 µM; in the test with OVCAR-5 ovarian, 3.35 µM; in the test with PC-3 prostate, 3.11 µM; in the test with SF-268 CNS it was 3.04 µM. Moreover, the figures for the TGI in the test on SK-MEL-28 melanoma and with SW-620 colon were 3.2 µM and 4.08 µM, respectively.
